Earlier results on one compound are cited in US20070161542A1, “Ptb1b photoprobes” (priority 2003, published 2007).

Non-standard residues stand in square brackets, D forms with d. Residues, ends and D or L forms follow the SMILES beside them. *: point of attachment. F2Pmp = N[C@@H](Cc1ccc(C(F)(F)P(=O)(O)O)cc1)C(=O)O; Bz = O=C(c1ccccc1)*

In the series the test system is PTP1B and TCPTP1B. To be noted: reference (23); cited from earlier work.

As for `NC(=O)[C@H](Cc1ccc(C(F)(F)P(=O)(O)O)cc1)NC(=O)[C@H](Cc1ccc(C(F)(F)P(=O)(O)O)cc1)NC(=O)[C@H](CCC(=O)O)NC(=O)c1ccccc1` [BzN-EJJ-AMIDE, N-benzoyl-L-glutamyl-[4-phosphono(difluoromethyl)]-L-phenylalanyl-[4-phosphono(difluoromethyl)]-L-phenylanalininamide] (Bz-Glu-[F2Pmp]-[F2Pmp]-NH2), the inhibitor character entry was “selective, potent inhibitor”.
